Results reported in PubChem BioAssay (NCI).
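Growth conditions: 96-well plates. Treatment: test compound, 48 hours, 5 concentrations. Analysis: linear interpolation between bracketing concentrations; unreached endpoints set to highest concentration. TGI is the concentration that stops growth completely.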

Tests used:
Assay in all cases: growth of human tumour cells (NCI), 48 h
[1] = system: UACC-62 melanoma
[2] = system: SF-268 CNS
[3] = system: MOLT-4 leukemia
[4] = system: NCI-H460 lung
[5] = system: MDA-MB-231 breast
[6] = system: PC-3 prostate
[7] = system: A498 renal
[8] = system: MDA-MB-435
[9] = system: RPMI-8226 leukemia
[10] = system: HCT-116 colon
[11] = system: OVCAR-3 ovarian
[12] = system: COLO 205 colon
[13] = system: HOP-62 NSCLC
[14] = system: HT29 colon
[15] = system: SF-295 CNS
[16] = system: U251 CNS

Measured: TGI

O=C(CCc1ccccc1)n1cccc1CO
> 100 µM: all assays above

COc1cc2c(cc1O)C1(Cc3ccc4c(c3C1=O)OCO4)N(C)CC2 (configuration not stated)
> 100 µM: all assays above

CC1CN(c2cc3c(cc2F)c(=O)c(C(=O)O)cn3-c2ccc(F)cn2)CC(C)N1 (configuration not stated)
> 100 µM: all assays above

COc1ccc(N=NC(=Nc2ccc(Cl)cc2)c2ccc(N(CCC#N)CCC#N)cc2)cc1
91.6 µM: [3]
54.1 µM: [1]
> 100 µM: all other assays above

O=c1cc(N=Nc2ccc(Cl)c(Cl)c2)[nH]c(=O)[nH]1
3.65 µM: [16]
7.46 µM: [4]
28.8 µM: [7]
3.21 µM: [10]
17.6 µM: [8]
3.38 µM: [5]
13.6 µM: [6]
7.57 µM: [2]
5.41 µM: [11]
19.2 µM: [13]
3.13 µM: [14]
6.48 µM: [3]
32.5 µM: [15]
5.6 µM: [9]
4.61 µM: [1]
3.36 µM: [12]

COc1cc2c(cc1OC)C(=O)C1(C2)[C@H](c2ccccc2)C2C(=O)c3cc(OC)c(OC)cc3C2[C@H]1c1ccccc1 (some centres not stated)
> 100 µM: all assays above

COc1cc2c(cc1OC)CC1c3cc(OC)c(OC)cc3CCN1CC2 (configuration not stated)
> 100 µM: all assays above

CSC1=NNC(SC)=NN1
0.351 µM: [2]
0.385 µM: [4]
0.114 µM: [3]
0.319 µM: [16]
0.29 µM: [1]
0.458 µM: [5]
0.398 µM: [13]
0.413 µM: [12]
0.321 µM: [8]
0.303 µM: [6] | [10]
0.34 µM: [15]
> 1 µM: [7] | [9]
0.316 µM: [14]
0.359 µM: [11]

CC(=O)c1ccc2c(c1)CC1(C2)Cc2ccc3c(c2C1=O)CCC3 (configuration not stated)
45.3 µM: [8]
74.7 µM: [1]
39.9 µM: [12]
31.6 µM: [14]
> 100 µM: all other assays above

COc1ccc(C2=C(N)c3ncccc3C2=O)cc1
> 100 µM: all assays above

CCCCCCCCCCCCCCCCCCNc1nc(=O)n(C2CC(O)C(COP(=O)(O)OCC3OC(n4ccc(N)nc4=O)C(O)C3O)O2)cc1F (configuration not stated)
29.2 µM: [14]
72.5 µM: [5]
> 100 µM: all other assays above

CSc1nc(C)c(CCOC(C)=O)c(Cl)n1
> 100 µM: all assays above

ON[C@H]1C[C@@H](n2cnc3c(NC4CC4)ncnc32)[C@H](O)[C@@H]1O
> 100 µM: all assays above

C[N+](C)(C)CC(=O)N/N=C(\C(=O)NC1=C(Cl)C(=O)c2ccccc2C1=O)C(C#N)c1nc(-c2ccc([N+](=O)[O-])cc2)cs1 (configuration not stated)
18.9 µM: [15]
25.2 µM: [4]
47 µM: [9]
34.4 µM: [13]
9.27 µM: [1]
3.17 µM: [8]
53.7 µM: [3]
38.4 µM: [2]
20.8 µM: [10]
26.4 µM: [16]
39.3 µM: [5]
4.44 µM: [11]
33.3 µM: [7]
33.6 µM: [14]
35 µM: [12]
56.8 µM: [6]

COc1cccc(Nc2nc(N)nc(N)c2N)c1
58.5 µM: [5]
53.8 µM: [10]
34.5 µM: [3]
60.7 µM: [15]
68.3 µM: [9]
43.6 µM: [4]
> 100 µM: all other assays above

CC(=O)OCC1OC(O[C@@H]2C[C@H]3C(C)(C)[C@@H](OC(C)=O)CC[C@]3(C)[C@H]3CC[C@]45C[C@]4(CC[C@H]5[C@@H](C)C[C@@H](O)[C@H](O)C(C)(C)F)[C@@]32C)C(O)C(O)C1O (some centres not stated)
48.2 µM: [5]
2.95 µM: [10]
31.6 µM: [8]
76.5 µM: [7]
4.24 µM: [9]
4.28 µM: [3]
91.5 µM: [6]
3.05 µM: [2] | [14]
41.1 µM: [16]
3.38 µM: [12]
> 100 µM: all other assays above

O=C(O)[C@H](Cc1ccccc1)NCCN1CCC[C@H]1C(=O)O
> 100 µM: all assays above
